Results published in patent US9375000B2, “Pesticidal arylpyrrolidines” (Bayer Intellectual Property GmbH, priority 2011, dated 2016).

Tests used:
Type in all cases: in vivo
[1] = tested on: Cucurbit Leaf Beetle (Aulacophora femoralis); assay: Cucurbit leaf beetle (Aulacophora femoralis) cucumber leaf dip test; settings: after 7 days
Method: (§1) Unless not mentioned otherwise, the test solutions were prepared as follows:
(§2) Solvent: 3 parts by weight Dimethylformamide
(§3) Emulsifier: 1 part by weight Polyoxyethylene alkyl phenyl ether
(§4) In order to make an appropriate formulation of an active compound, 1 part by weight of the active compound is mixed with the above mentioned amount of solvent and emulsifier and the mixture is diluted with water to a prescribed concentration. Ammonium salt or ammonium salt and penetration enhancer in a dosage of 1000 ppm are added to the desired concentration if necessary.
Leaves of cucumber were immersed in the test solution at the appropriate concentration, and the leaves were dried in air. The leaves were then put in a plastic cup containing sterilized black soil and five Aulacophora femoralis at second instar larvae were released in the cup. The cups were placed in a temperature-controlled chamber at 25° C. After 7 days, the number of dead larvae was counted, and thus the insecticidal activity was calculated. An insecticidal activity of 100% means that all larvae were killed, whereas an insecticidal activity of 0% means that no larva was killed.

[2] = tested on: Two-Spotted Spider Mite (Tetranychus urticae); assay: Two-spotted spider mite (Tetranychus urticae) spray test on kidney bean; settings: after 7 days
Method: as §1, §2, §3, §4
50 to 100 adult mites of Tetranychus urticae were inoculated to leaves of kidney bean at two-leaf stage planted in a pot of 6 cm in diameter. After one day, test solution at the appropriate concentration was sprayed thereon in a sufficient amount using a spray gun. After the spraying, the plant pot was placed inside a greenhouse, and after 7 days, the acaricidal activity was calculated. An acaricidal activity of 100% means that all mites were killed, whereas an acaricidal activity of 0% means that no mite was killed.

[3] = tested on: Larvae of Spodoptera litura; assay: Larvae of Spodoptera litura, method using artificial feeds; settings: artificial feed, after 7 days
Method: as §1, §2, §3, §4
[A Method Using Artificial Feeds (Trade Name: Insecta LFM, Manufactured by Nosan Corporation)]
Powdery artificial feeds (2.3 g) were added to a plastic cup (diameter: 7.5 cm, height: 4 cm) to achieve a certain thickness. Water-diluted liquid (5 ml) of the active compound prepared above having predetermined concentration was evenly poured thereto and allowed to stand until the feeds were solidified. Five of the 3rd-instar larvae of Spodoptera litura were released in respective cups, and covered. The cups were put in a temperature controlled room at 25° C. and humidity of 50 to 60%, and the number of dead larvae after 7 days was determined to calculate the pesticidal ratio. 100% pesticidal ratio means death of all the larvae, while 0% pesticidal ratio means no dead larvae.

[4] = active compound concentration 20 ppm
[5] = active compound concentration 4 ppm

CCC(=O)NCc1ccc(N2CCC(c3cc(Cl)c(F)c(Cl)c3)(C(F)(F)F)C2O)nc1C(F)(F)F (mixture of isomers) [A3-200]
100%: insecticidal activity [1, 4] | acaricidal activity [2, 4] | insecticidal activity (pesticidal ratio) [3, 4]

O=C(NCc1ccc(N2CCC(c3cc(Cl)c(F)c(Cl)c3)(C(F)(F)F)C2O)nc1C(F)(F)F)C1CC1 (mixture of isomers) [A3-203]
100%: insecticidal activity [1, 4] | acaricidal activity [2, 4] | insecticidal activity (pesticidal ratio) [3, 4]

CCC(=O)NCc1ccc(N2CCC(c3cc(Cl)c(F)c(Cl)c3F)(C(F)(F)F)C2O)nc1C(F)(F)F (mixture of isomers) [A3-211]
100%: insecticidal activity [1, 5] | insecticidal activity [1, 4] | acaricidal activity [2, 5] | acaricidal activity [2, 4] | insecticidal activity (pesticidal ratio) [3, 5] | insecticidal activity (pesticidal ratio) [3, 4]

CCC(=O)NCc1ccc(N2CCC(c3cc(Cl)cc(C(F)(F)F)c3)(C(F)(F)F)C2O)nc1C(F)(F)F (mixture of isomers) [A3-266]
100%: insecticidal activity [1, 4] | acaricidal activity [2, 4] | insecticidal activity (pesticidal ratio) [3, 4]

O=C(NCc1ccc(N2CCC(c3cc(Cl)cc(C(F)(F)F)c3)(C(F)(F)F)C2O)nc1C(F)(F)F)C1CC1 (mixture of isomers) [A3-269]
100%: insecticidal activity [1, 4] | acaricidal activity [2, 4] | insecticidal activity (pesticidal ratio) [3, 4]

CCC(=O)NCc1ccc(N2CCC(c3cccc(C(F)(F)F)c3)(C(F)(F)F)C2O)cc1C(F)(F)F (racemic) [A1-294]
100%: insecticidal activity [1, 4] | acaricidal activity [2, 4] | insecticidal activity (pesticidal ratio) [3, 4]

O=C(NCc1ccc(N2CCC(c3cccc(C(F)(F)F)c3)(C(F)(F)F)C2O)cc1C(F)(F)F)C1CC1 (racemic) [A1-297]
100%: insecticidal activity [1, 4] | acaricidal activity [2, 4] | insecticidal activity (pesticidal ratio) [3, 4]

CCC(=O)NCc1ccc(N2CCC(c3ccc(F)c(C(F)(F)F)c3)(C(F)(F)F)C2O)cc1C(F)(F)F (racemic) [A1-305]
100%: insecticidal activity [1, 4] | acaricidal activity [2, 4] | insecticidal activity (pesticidal ratio) [3, 4]

O=C(NCc1ccc(N2CCC(c3ccc(F)c(C(F)(F)F)c3)(C(F)(F)F)C2O)cc1C(F)(F)F)C1CC1 (racemic) [A1-308]
100%: insecticidal activity [1, 4] | acaricidal activity [2, 4] | insecticidal activity (pesticidal ratio) [3, 4]

CCC(=O)NCc1ccc(N2CCC(c3cccc(C(F)(F)F)c3)(C(F)(F)F)C2O)nc1C(F)(F)F (racemic) [A3-222]
100%: insecticidal activity [1, 4] | acaricidal activity [2, 4] | insecticidal activity (pesticidal ratio) [3, 4]

O=C(NCc1ccc(N2CCC(c3cccc(C(F)(F)F)c3)(C(F)(F)F)C2O)nc1C(F)(F)F)C1CC1 (racemic) [A3-225]
100%: insecticidal activity [1, 4] | acaricidal activity [2, 4] | insecticidal activity (pesticidal ratio) [3, 4]

O=C(CC(F)(F)F)NCc1ccc(N2CCC(c3cccc(C(F)(F)F)c3)(C(F)(F)F)C2O)nc1C(F)(F)F (racemic) [A3-227]
100%: insecticidal activity [1, 4] | acaricidal activity [2, 4] | insecticidal activity (pesticidal ratio) [3, 4]

O=C(NCc1ccc(N2CCC(c3cc(Cl)cc(Cl)c3)(C(F)(F)F)C2O)cc1Cl)C1CC1 (stereo not drawn) [A1-5]
100%: insecticidal activity [1, 4] | acaricidal activity [2, 4] | insecticidal activity (pesticidal ratio) [3, 4]

O=C(CC(F)(F)F)NCc1ccc(N2CCC(c3cc(Cl)cc(Cl)c3)(C(F)(F)F)C2O)cc1Cl (stereo not drawn) [A1-7]
100%: insecticidal activity [1, 4] | acaricidal activity [2, 4] | insecticidal activity (pesticidal ratio) [3, 4]

CCC(=O)NCc1ccc(N2CCC(c3cc(Cl)c(Cl)c(Cl)c3)(C(F)(F)F)C2O)cc1Cl (stereo not drawn) [A1-13]
100%: insecticidal activity [1, 4] | acaricidal activity [2, 4] | insecticidal activity (pesticidal ratio) [3, 4]

CC(=O)NCc1ccc(N2CCC(c3cc(C(F)(F)F)cc(C(F)(F)F)c3)(C(F)(F)F)C2O)cc1Cl (stereo not drawn) [A1-23]
100%: insecticidal activity [1, 4] | acaricidal activity [2, 4] | insecticidal activity (pesticidal ratio) [3, 4]

CCC(=O)NCc1ccc(N2CCC(c3cc(C(F)(F)F)cc(C(F)(F)F)c3)(C(F)(F)F)C2O)cc1Cl (stereo not drawn) [A1-24]
100%: insecticidal activity [1, 4] | acaricidal activity [2, 4] | insecticidal activity (pesticidal ratio) [3, 4]

COCCC(=O)NCc1ccc(N2CCC(c3cc(C(F)(F)F)cc(C(F)(F)F)c3)(C(F)(F)F)C2O)cc1Cl (stereo not drawn) [A1-30]
100%: insecticidal activity [1, 4] | acaricidal activity [2, 4] | insecticidal activity (pesticidal ratio) [3, 4]

CSCC(=O)NCc1ccc(N2CCC(c3cc(C(F)(F)F)cc(C(F)(F)F)c3)(C(F)(F)F)C2O)cc1Cl (stereo not drawn) [A1-31]
100%: insecticidal activity [1, 4] | acaricidal activity [2, 4] | insecticidal activity (pesticidal ratio) [3, 4]

CS(=O)(=O)CC(=O)NCc1ccc(N2CCC(c3cc(C(F)(F)F)cc(C(F)(F)F)c3)(C(F)(F)F)C2O)cc1Cl (stereo not drawn) [A1-33]
100%: insecticidal activity [1, 4] | acaricidal activity [2, 4] | insecticidal activity (pesticidal ratio) [3, 4]

O=C(NCc1ccc(N2CCC(c3cc(Cl)cc(Cl)c3)(C(F)(F)F)C2O)cc1C(F)(F)F)C1CC1 (stereo not drawn) [A1-38]
100%: insecticidal activity [1, 4] | acaricidal activity [2, 4] | insecticidal activity (pesticidal ratio) [3, 4]

O=C(CC(F)(F)F)NCc1ccc(N2CCC(c3cc(Cl)cc(Cl)c3)(C(F)(F)F)C2O)cc1C(F)(F)F (stereo not drawn) [A1-40]
100%: insecticidal activity [1, 4] | acaricidal activity [2, 4] | insecticidal activity (pesticidal ratio) [3, 4]

CSCC(=O)NCc1ccc(N2CCC(c3cc(Cl)cc(Cl)c3)(C(F)(F)F)C2O)cc1C(F)(F)F (stereo not drawn) [A1-42]
100%: insecticidal activity [1, 4] | acaricidal activity [2, 4] | insecticidal activity (pesticidal ratio) [3, 4]

C[S+]([O-])CC(=O)NCc1ccc(N2CCC(c3cc(Cl)cc(Cl)c3)(C(F)(F)F)C2O)cc1C(F)(F)F (stereo not drawn) [A1-43]
100%: insecticidal activity [1, 4] | acaricidal activity [2, 4] | insecticidal activity (pesticidal ratio) [3, 4]

CS(=O)(=O)CC(=O)NCc1ccc(N2CCC(c3cc(Cl)cc(Cl)c3)(C(F)(F)F)C2O)cc1C(F)(F)F (stereo not drawn) [A1-44]
100%: insecticidal activity [1, 4] | acaricidal activity [2, 4] | insecticidal activity (pesticidal ratio) [3, 4]

CCC(=O)NCc1ccc(N2CCC(c3cc(Cl)c(Cl)c(Cl)c3)(C(F)(F)F)C2O)cc1C(F)(F)F (stereo not drawn) [A1-46]
100%: insecticidal activity [1, 4] | acaricidal activity [2, 4] | insecticidal activity (pesticidal ratio) [3, 4]

O=C(NCc1ccc(N2CCC(c3cc(Cl)c(Cl)c(Cl)c3)(C(F)(F)F)C2O)cc1C(F)(F)F)C1CC1 (stereo not drawn) [A1-49]
100%: insecticidal activity [1, 4] | acaricidal activity [2, 4] | insecticidal activity (pesticidal ratio) [3, 4]

O=C(CC(F)(F)F)NCc1ccc(N2CCC(c3cc(Cl)c(Cl)c(Cl)c3)(C(F)(F)F)C2O)cc1C(F)(F)F (stereo not drawn) [A1-51]
100%: insecticidal activity [1, 4] | acaricidal activity [2, 4] | insecticidal activity (pesticidal ratio) [3, 4]

CCC(=O)NCc1ccc(N2CCC(c3cc(Cl)c(Cl)c(Cl)c3)(C(F)(F)F)C2O)cc1Br (stereo not drawn) [A1-162, N-{2-bromo-4-[2-hydroxy-3-(3,4,5-trichlorophenyl)-3-(trifluoromethyl)pyrrolidin-1-yl]benzyl}propanamide]
100%: pest or weed control at 20 ppm ([1]; Aulacophora, foliar, 168 h, active compound concentration 20 ppm, read-out: insecticidal activity) | pest or weed control at 20 ppm ([2]; Tetranychus urticae, 168 h, active compound concentration 20 ppm, read-out: acaricidal activity) | pest or weed control at 20 ppm ([3]; Spodoptera litura, 168 h, active compound concentration 20 ppm, read-out: insecticidal activity (pesticidal ratio))
